Experimental data: patent publication US9018370B2, “Derivatives of uridine phosphate and their uses in protein binding assays” (King's College London of Strand, priority 2009, dated 2015)

What was measured:
B. taurus α-1,3-GalT [1] = target: T1, B. taurus α-1,3-GalT (Bos taurus, UniProt P14769); assay: Donor kinetics of UDP-Gal derivatives with GalT, HPLC; format: biochemical; settings: MnCl2 20 mM, MOPS pH 7.2, 37° C.
T1 construct: made in house
Description: J. Am. Chem. Soc. 122, 261-1269 (2000); Rich, J. R.; Szpacenko, A.; Palcic, M. M. & Bundle, D. R. Glycosyltransferase-Catalyzed Synthesis of Thiooligosaccharides. Angew. Chem. Int. Ed. […] ChemBioChem 9, 1632-1640 (2008). […] (total volume 100 μL, all concentrations are final concentrations). The reactions were stopped by cooling in dry ice. Samples were analysed immediately by HPLC on a PerkinElmer Series 200 machine equipped with a Supelcosil LC-18-T column (5 μm, 25 cm×4.6 mm), a column oven (set to 30° C.), and a diode array detector. Each sample (injection volume 40 μL) was eluted at 1.5 mL/min with a gradient of methanol (10-30%) against 0.5 M phosphate buffer (adjusted to pH 8 with triethylamine). […] Km and vmax values were determined by fitting data points to a Michaelis-Menten curve using GraFit 5.0.10.

[2] = Quantum yield determination of UDP-Gal derivatives 3a-d; format: physicochemical
Description: To determine quantum yields, for each absorbance and fluorescence spectrum the area under the curve (AUC) was calculated by numerical integration, applying the mid-point rule. For each compound, AUCabs and AUCfluo were then plotted over compound concentration according to AUCabs=A×[conc]+B (equation 1) and AUCfluo=A′×[conc]+B′ (equation 2). […] The quantum yields for reference compounds were used to calculate the general quantum yield φg for each compound 3a-d, according to φg=φref×(A′/A)/(A′/A)ref.

B. taurus α-1,3-GalT [3] = target: T1, B. taurus α-1,3-GalT; assay: Microplate fluorescence titration / ligand-displacement assay with fluorophore 3d; format: binding
Description: The fluorescence emission of a given fluorophore is influenced by its microenvironment, although different fluorophores vary their fluorescence emissions to different extents on changing microenvironment.
(§1) Fluorescence intensity measurements with 3d were carried out in black NUNC F96 MicroWell polystyrene plates on a BMG labtech PolarStar microplate reader equipped with a 350±5 nm excitation filter and a 430±5 nm emission filter. The number of flashes per wells was set to 50 (gain: 2240; position delay: 0.2 s). Prior to readings, plates were incubated, with shaking, for 10 min at 30° C. (double orbital, shaking width 4 mm, 10 seconds). Results were visualised with BMG labtech data analysis software Mars 1.10 and analysed with GraFit version 5.0.10.
(§2) Samples were pipetted into the requisite wells of a black NUNC 96-well plate as shown in tables E1-E3, at the end of the description. Key: B—Tris/HCl buffer (50 mM, pH 7; 40 μL); F—fluorophore 3d (200 nM in Tris/HCl buffer; 40 μL); M—MnCl2 (10 mM in Tris/HCl buffer; […]); E—galactosyltransferase (in Tris/HCl buffer; 40 μL); I—inhibitor (in Tris/HCl buffer; 40 μL). Total volume/well: 200 μL. All experiments were carried out in triplicate, unless indicated otherwise.

[4] = tested on: AA(Gly)B GTB mutant (H. sapiens); assay: Titration of 3d with other GTs; format: binding
Description: as §1, §2
(§3) To assess the generality of this new GT assay principle, we next repeated the above experiments with another four GalTs, including mammalian and bacterial enzymes with different acceptor specificities and reaction mechanisms. […] The experimental protocol was the same as in Example 2. The amino acid sequences for four GalTs used in the experiment, i.e. LgtC (N. meningitidis), Ggta1 (B. taurus), GTB (H. sapiens) and AA(Gly)B GTB mutant (H. sapiens) or references where the sequence listings can be found are given above. The amino acid sequence for β4GalT (H. pylori) can be found above and in the following reference: Endo, T., Koizumi, S., Tabata, K. & Ozaki, A. Glycobiology 10, 809-813 (2000).

GTB (H. sapiens) = assay: Titration of 3d with other GTs; format: binding
Description: as §1, §2, §3

LgtC (N. meningitidis) = assay: Titration of 3d with other GTs; format: binding
Description: as §1, §2, §3

β4GalT (H. pylori) = assay: Titration of 3d with other GTs; format: binding
Description: as §1, §2, §3

Ggta1 = target: T2, Ggta1 (Bos taurus, UniProt P14769); assay: Variation in fluorescence of 3d and analogues upon incubation with Ggta1; format: binding, B. taurus; settings: various concentrations of Ggta1
T2 construct: made in house
Description: as §1, §2
We also carried out an experiment on 3d (numbered 18e in FIG. 4) and different analogues of 3d, namely the nucleoside 5h, the nucleotide 6r and nucleoside diphosphate 22d, to show their variation in fluorescence on binding to Ggta1.
The synthesis of 5h, 6r and 22d are shown below. The protocol for the microplate/fluorescence experiments was the same as in Example 2.

T1 sequence (P14769 whole entry): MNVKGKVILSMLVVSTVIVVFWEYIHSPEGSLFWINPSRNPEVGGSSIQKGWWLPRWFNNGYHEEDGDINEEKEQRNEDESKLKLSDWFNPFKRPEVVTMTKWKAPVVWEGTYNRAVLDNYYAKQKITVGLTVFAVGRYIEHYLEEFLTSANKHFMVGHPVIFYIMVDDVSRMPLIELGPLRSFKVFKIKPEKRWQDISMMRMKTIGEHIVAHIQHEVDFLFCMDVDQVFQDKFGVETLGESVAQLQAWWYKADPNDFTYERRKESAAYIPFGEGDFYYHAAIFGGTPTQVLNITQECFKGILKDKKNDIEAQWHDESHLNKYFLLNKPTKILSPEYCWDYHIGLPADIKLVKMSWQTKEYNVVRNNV
T2 sequence (P14769 whole entry): as above

## O=Cc1ccc(-c2cn([C@@H]3O[C@H](COP(=O)(O)OP(=O)(O)O[C@H]4O[C@H](CO)[C@H](O)[C@H](O)[C@H]4O)[C@@H](O)[C@H]3O)c(=O)[nH]c2=O)s1 [3d, 5-(5-Formylthien-2-yl)-UDP-α-D-galactose]
B. taurus α-1,3-GalT [1]
  Km: 13 ± 1 µM
  kcat: 0.0019 s⁻¹
[2]
  Fluorescence (in words): much more strongly fluorescent
  Quantum yield relative to that of 3a: 25 fold
  Quantum yield relative to that of the parent UDP-Gal: ~6000 fold
[2]; in H2O
  Quantum yield: 0.26
B. taurus α-1,3-GalT [3]; in the absence of Mn^2+
  Fluorescence of 3d upon titration with enzyme: little or no fluorescence quenching
B. taurus α-1,3-GalT [3]; in the presence of MnCl2, 200 nM ligand, Tris pH 7
  Fluorescence of 3d upon titration with enzyme: quenched in the presence of enzyme in a concentration-dependent manner
[4]
  Fluorescence of 3d with enzyme: strong fluorescence quenching effect
GTB (H. sapiens)
  Fluorescence of 3d with enzyme: strong fluorescence quenching effect
LgtC (N. meningitidis)
  Fluorescence of 3d with enzyme: strong fluorescence quenching effect
β4GalT (H. pylori)
  Fluorescence of 3d with enzyme: strong fluorescence quenching effect
Ggta1
  Variation in fluorescence on binding to Ggta1: varied their intensity of luminescence with Ggta1
